According to patent US20230097883A1, “ERGOTHIONEINE PET COMPOUNDS AND METHODS OF USE THEREOF” (VANDERBILT UNIVERSITY, priority 2021, published 2023):

Assays:
[1] = Ferrous ion chelating (FIC) assay; type: biochemical; settings: increasing ERGO concentrations
From the text: (§1) We also assessed ERGO's transition metal scavenging using cupric ion chelating (CIC) and ferrous ion chelating (FIC) assays. In these experiments, pyrocatechol violet or ferrozine forms a complex with free Cu(II) or Fe(II), respectively, resulting in a chromophore with a strong absorbance signal. The pyrocatechol violet-COI) complex has an absorbance lambda max (λmax) at 630 nm, and ferrozine-Fe(II) has a λmax at 562 nm. In the presence of ERGO, fewer free metals are available to form these complexes, resulting in less absorbance.
The iron chelating activity of ERGO was determined using a FIC assay, which was obtained from Zen-Bio Inc. (Durham, N.C.). The assay was done on a 96-well plate with triplicated samples, standards, background, and max absorbance wells. All of the assay absorbance values were subtracted from the average background absorbance, comprising of water and assay buffer (1:1). Maximal absorbance was measured by averaging the absorbance values of 3 wells containing only FeSO4 and assay buffer. […] The assaying plate was incubated at room temperature for 10 minutes then the plate was read at 562 nm using a Biotek Synergy 4 plate reader. Absorbances were averaged, and the background absorbance was subtracted from the sample and maximum averages (Abstest and Absmax). […]

5XFAD mice [2] = experiment: Rotarod after ERGO treatment; type: in vivo, mouse; settings: ERGO-treated 5XFAD versus non-treated 5XFAD and WT, three days of testing
Method: (§2) To address our primary question whether longitudinal consumption of ERGO as a potent antioxidant benefit the brain, three cohorts of animals (n=12 non-treated WT control, n=12 non-treated 5XFAD, and n=18 ERGO-treated 5XFAD) were used (FIG. 3.2A). Starting at the age of 8 weeks, the animals were treated with high doses of ERGO solution (25-50 mg/Kg) formulated in double distilled (dd) water via oral gavage three times a week over the course of eight weeks. To reduce bias in the behavioral experiments with regard to the potential stress during gavage treatment, non-treated animals underwent the identical gavage process with the vehicle, water, only. The efficacy of the therapy was evaluated by behavioral testing, followed by three different non-invasive PET imaging sessions to assess biomarkers related to AD pathology. In addition to assessing Abeta levels and glucose metabolism using the [^11C]PIB and [^18F]FDG probes, respectively; we also tested for the first time whether oxidative stress could be used as an indicator of response to therapy using the [^11C]ERGO PET radioligand. Finally, animals were euthanized, and the brains were collected for immunohistochemical analysis. […]
Neuromuscular ability and motor learning were assessed using a standard rotarod (Ugo Basile). […] Time to fall was recorded automatically when mice fell from the rod onto a base plate.

[3] = Cupric ion chelating (CIC) assay; type: biochemical; settings: increasing ERGO concentrations
From the text: as §1
The copper chelating activity of ERGO was determined using a CIC assay (Zen-Bio Inc., Durham, N.C.). Assays contained triplicated samples, standards, background, and max absorbance wells. All the assay absorbance values were subtracted from the average background absorbance, comprising of water and assay buffer (1:1). Maximal absorbance was measured by averaging the absorbance values of 3 wells containing only CuSO4 and assay buffer. […] The plate was then read at 632 nm using a Biotek Synergy 4 plate reader. Absorbances were averaged, and the background absorbance was subtracted from the sample and maximum averages (Abstest and Absmax). Cupric ion chelating percentage was then calculated using the following equation: Cupric ion chelating (%)=100×(Absmax−Abstest)/Absmax.

5XFAD mice [4] = experiment: Elevated zero maze after ERGO treatment; type: in vivo, mouse
Method: as §2, with “radioligand.” for “radioligand. Finally, animals were euthanized, and the brains were collected for immunohistochemical analysis.”
We recorded exploratory activity in open versus closed zones of a standard EZM during a 5-min trial. […] Closed zones had walls of approximately 30 cm height and light levels of 215-280 lux depending on where they were measured. […]

C[N+](C)(C)[C@@H](Cc1c[nH]c(=S)[nH]1)C(=O)[O-] [ERGO, L-ergothioneine]
absorbance signal of ferrozine-Fe(II) complex [1]: decreased as the concentrations of ERGO increased in a dose-dependent fashion
rotarod latency to fall, group differences (5XFAD mice [2]): no differences among the groups
absorbance signal of pyrocatechol violet-Cu(II) complex [3]: decreased as the concentrations of ERGO increased in a dose-dependent fashion
adverse effects on activity or anxiety-like behavior (5XFAD mice [4]; 5XFAD mice, ERGO 25-50 mg/Kg oral gavage three times a week over eight weeks): no adverse effects
time spent exploring the closed zones (5XFAD mice [4]; ERGO-treated 5XFAD mice (each group), 5-min trial): ~60%
